Assays:
[1] = tested on: m^6A methylation of MOLM-13 transcriptome; experiment: m^6A-seq and sequencing data analysis (differential methylation peaks, motifs, annotation, GO enrichment); format: cell-based, human
Method: mRNA was purified using a GenElute™ mRNA Miniprep Kit (SIGMA, MRN10-1KT, St. Louis, MO, USA) according to the manufacturer’s protocol. Briefly, the total RNA was mixed with 2× Binding Solution and oligo(dT) beads, vortexed, and left for 10 min at room temperature. The beads:mRNA complex was passed through a GenElute spin filter/collection tube and washed twice with Wash Solution. The mRNA was eluted in an Elution Solution incubated at 70 °C.
m^6A-seq was performed using the EpiMark® N^6-Methyladenosine Enrichment Kit (NEB, E1610S). Briefly, 25 μL of Dynabeads™ Protein G (Invitrogen, 10004D) and 1 μL of N^6-Methyladenosine Antibody were incubated in a 4 °C rotator for 2 h. The purified mRNA was fragmented at 95 °C for 10 min in a fragmentation buffer (100 mM Tris (pH 8.0), 8 mM MgCl2) with spike-in control RNA (m^6A and unmodified, 0.1 fmol of each RNA). The fragmented RNA was concentrated with RNA Clean & Concentrator™-5 (ZYMO […], R1014, Irvine, CA, USA) and then 5% was saved as the input. The remaining 95% of the fragmented RNA was added to the beads/antibody complex. RNA was eluted in Buffer RLT (QIAGEN, 79216, Hilden, Germany), followed by ethanol precipitation and was used for sequencing library construction. All sequencing experiments were performed in triplicate via Novaseq. Adapter trimming and QC were performed using Trim Galore. Reads were mapped to hg38 by HISAT2 [56], and exomePeak and HOMER [58] were used to analyze the differential methylation peaks, motifs, and gene annotations.

MOLM-13 cells = experiment: Combinatorial analysis of AML drugs with eltrombopag (EZ-cytox, Synergyfinder); format: cell-based; conditions: Homo sapiens, MOLM-13; for inhibition at 1.5 µM: MOLM-13, eltrombopag alone 1,500 nM; for inhibition at 3 µM: MOLM-13, eltrombopag alone 3,000 nM; for inhibition at 6 µM: MOLM-13, eltrombopag alone 6,000 nM; for inhibition at 12 µM: MOLM-13, eltrombopag alone 12,000 nM
Method: The MOLM-13 cells were seeded in white 96-well clear bottomed plates with 50 μL of medium (5000 cells/well). The plated cells were treated with serially diluted eltrombopag and current AML drugs, including venetoclax, cytarabine, gilteritinib, and sorafenib, to a final volume of 100 μL and incubated for 72 h at 37 °C. After incubation, 10 μL of EZ-cytox kit reagent from the EZ-cytox cell viability assay kit (DaeiLab) was added to each well and then incubated for 3 h at 37 °C. The absorbance of metabolically active cells was measured at a wavelength of 450 nm using a Victor multilabel reader (PerkinElmer). The synergy scores of each combination were quantified by the HAS model, ZIP model, Loewe additivity model, and Bliss independence models using Synergyfinder software. Positive or negative synergy scores obtained through these models represent synergy and antagonism, respectively.

[2] = tested on: AML cell line transplanted mouse; design: method as in PMID 22627766; conditions: mouse model transplanted with an AML cell line; cited from earlier work
[3] = design: method as in PMID 30305280, PMID 30002802; conditions: cited from earlier work
G9a = molecular target: T1, G9a (Homo sapiens, UniProt Q96KQ7); experiment: Methyltransferase selectivity panel (MT HotSpot radioisotope assay), G9a; format: biochemical; conditions: 10 μM eltrombopag
T1 construct: purchased Reaction Biology (Malvern, PA, USA), contract assay
T1 sequence (Q96KQ7 1-1210): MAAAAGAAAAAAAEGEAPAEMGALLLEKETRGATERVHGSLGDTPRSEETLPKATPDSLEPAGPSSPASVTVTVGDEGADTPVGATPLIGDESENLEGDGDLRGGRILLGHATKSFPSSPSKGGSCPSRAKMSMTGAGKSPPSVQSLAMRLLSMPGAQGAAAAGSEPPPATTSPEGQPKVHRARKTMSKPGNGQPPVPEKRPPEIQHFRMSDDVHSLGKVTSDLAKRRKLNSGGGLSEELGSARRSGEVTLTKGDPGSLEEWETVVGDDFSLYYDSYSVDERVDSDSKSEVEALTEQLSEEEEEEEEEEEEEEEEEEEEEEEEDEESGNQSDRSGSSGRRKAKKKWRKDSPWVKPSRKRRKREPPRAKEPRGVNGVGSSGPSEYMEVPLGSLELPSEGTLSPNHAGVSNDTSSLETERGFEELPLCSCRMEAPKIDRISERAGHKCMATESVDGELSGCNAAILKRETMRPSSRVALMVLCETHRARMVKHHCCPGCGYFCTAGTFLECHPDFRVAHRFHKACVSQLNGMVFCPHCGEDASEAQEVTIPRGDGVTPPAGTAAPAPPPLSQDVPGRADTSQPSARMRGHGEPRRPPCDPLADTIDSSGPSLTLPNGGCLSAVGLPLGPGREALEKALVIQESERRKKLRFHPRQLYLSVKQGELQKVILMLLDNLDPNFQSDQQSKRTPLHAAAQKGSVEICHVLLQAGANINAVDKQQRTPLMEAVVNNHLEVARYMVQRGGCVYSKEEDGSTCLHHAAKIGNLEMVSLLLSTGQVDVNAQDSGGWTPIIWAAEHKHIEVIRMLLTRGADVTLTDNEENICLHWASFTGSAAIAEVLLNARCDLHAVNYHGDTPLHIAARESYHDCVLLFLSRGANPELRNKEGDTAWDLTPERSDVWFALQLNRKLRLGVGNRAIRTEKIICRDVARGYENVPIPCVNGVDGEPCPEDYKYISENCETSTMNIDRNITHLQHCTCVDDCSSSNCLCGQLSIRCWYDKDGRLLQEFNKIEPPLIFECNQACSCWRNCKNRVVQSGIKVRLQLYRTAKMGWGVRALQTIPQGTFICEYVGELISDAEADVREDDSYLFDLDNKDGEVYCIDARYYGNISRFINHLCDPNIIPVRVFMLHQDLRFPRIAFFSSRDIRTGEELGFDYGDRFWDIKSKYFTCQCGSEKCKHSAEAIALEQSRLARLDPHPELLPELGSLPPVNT
Method: The selectivity profile of eltrombopag was investigated by testing the level of inhibition in a methyltransferase panel. The inhibition of 7 […] methyltransferase was tested at Reaction Biology (Malvern, PA, USA) using a gold standard radioisotope-based MT assay (MT HotSpot^TM) with 10 μM of eltrombopag in duplicate.

For CC1=NN(c2ccc(C)c(C)c2)C(=O)/C1=N\Nc1cccc(-c2cccc(C(=O)O)c2)c1O [Eltrombopag], the “number of differential m^6A methylation sites” value ([1]; MOLM-13, 25 μM eltrombopag) was 10,723, the “share of differential m^6A sites hypomethylated” value ([1]; MOLM-13, 25 μM eltrombopag) was 71% and the share of hypermethylation ([1]; MOLM-13, 25 μM eltrombopag) was “about 30%”. The “share of hypomethylated genes that are noncoding-RNA (ncRNA)” value ([1]; eltrombopag-treated MOLM-13) was 17%, the “share of hypomethylated genes that are protein-coding” value ([1]; eltrombopag-treated MOLM-13) was ~ 80% and the “share of hypomethylated genes that are pseudogenes” value ([1]; eltrombopag-treated MOLM-13) was 3%. The inhibition at 1.5 µM (MOLM-13 cells; cytarabine matrix (panel C)) was 9.02 ± 5.05%, the inhibition at 1.5 µM (MOLM-13 cells; venetoclax matrix (panel A)) was 13 ± 2.13% and the inhibition at 3 µM (MOLM-13 cells; cytarabine matrix (panel C)) was 24.8 ± 2.76%. It also gave an inhibition at 3 µM (MOLM-13 cells; venetoclax matrix (panel A)) of 30 ± 5.01%, an inhibition at 6 µM (MOLM-13 cells; cytarabine matrix (panel C)) of 61.6 ± 1.03% and an inhibition at 6 µM (MOLM-13 cells; venetoclax matrix (panel A)) of 69.4 ± 2.33%. For the same molecule, the inhibition at 12 µM (MOLM-13 cells; cytarabine matrix (panel C)) was 93.83 ± 0.61%, the inhibition at 12 µM (MOLM-13 cells; venetoclax matrix (panel A)) was 94.91 ± 0.86% and the “in-vivo anti-leukemic effect (survival)” value [2] was “prolonging the survival”. The “safety in clinical studies, combination with azacitidine” value ([3]; combination with azacitidine compared with azacitidine alone) was “increased progression to acute myeloid leukemia”, the “safety in clinical studies, monotherapy” value ([3]; monotherapy) was “didn’t show any safety concerns” and the remaining activity at 10 µM (G9a) was 99 ± 3.3%.

Reference: publication PMC9032718, “Eltrombopag as an Allosteric Inhibitor of the METTL3-14 Complex Affecting the m^6A Methylation of RNA in Acute Myeloid Leukemia Cells” (Pharmaceuticals, 2022)
